Experiments:
[1] = target: human orexin 2 receptor (Homo sapiens (Human), UniProt O43614); test: Human orexin 2 receptor radioligand binding ([3H]-EMPA); settings: HEK293 stably expressing human orexin 2 receptor; [3H]-EMPA; apparent Ki; read-out: hOX2 Ki
Outline: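 Competition binding with 2 nM final [3H]-EMPA in PBS against homogenized whole-cell suspension; DMSO ≤0.1%. Nonspecific binding defined with […] almorexant. Plates washed with PBS, dried, and bound radioactivity counted by scintillation.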

[2] = target: human orexin 1 receptor (Homo sapiens, UniProt O43613); test: Human orexin 1 receptor radioligand binding; settings: CHO cells stably expressing human orexin 1 receptor; apparent Ki; read-out: hOX1 Ki
Outline: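 Homogenized CHO cells stably expressing human orexin 1 receptor, in PBS. They were incubated 60 min at room temperature with 4 nM final tritiated thiazolyl-pyrrolidinyl-methanone radioligand, DMSO ≤0.1%. Nonspecific binding taken with 10 μM almorexant; bound radioactivity collected by GF/C filtration and scintillation-counted.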

[3] = target: rat orexin 1 receptor (Rattus norvegicus, UniProt P56718); test: Rat orexin 1 receptor radioligand binding; settings: HEK293 cells stably expressing rat orexin 1 receptor; apparent Ki; read-out: rOX1 Ki
Outline: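 Homogenized cell suspensions competed against 4 nM final of a tritiated oxadiazolyl-pyrrolidinyl thiazole methanone radioligand (35.3 Ci/mmol) in PBS, with DMSO ≤0.1%. Nonspecific binding defined with 10 μM almorexant; after washing and drying, bound radioactivity counted by scintillation.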

Chain of human orexin 2 receptor (O43614 whole entry): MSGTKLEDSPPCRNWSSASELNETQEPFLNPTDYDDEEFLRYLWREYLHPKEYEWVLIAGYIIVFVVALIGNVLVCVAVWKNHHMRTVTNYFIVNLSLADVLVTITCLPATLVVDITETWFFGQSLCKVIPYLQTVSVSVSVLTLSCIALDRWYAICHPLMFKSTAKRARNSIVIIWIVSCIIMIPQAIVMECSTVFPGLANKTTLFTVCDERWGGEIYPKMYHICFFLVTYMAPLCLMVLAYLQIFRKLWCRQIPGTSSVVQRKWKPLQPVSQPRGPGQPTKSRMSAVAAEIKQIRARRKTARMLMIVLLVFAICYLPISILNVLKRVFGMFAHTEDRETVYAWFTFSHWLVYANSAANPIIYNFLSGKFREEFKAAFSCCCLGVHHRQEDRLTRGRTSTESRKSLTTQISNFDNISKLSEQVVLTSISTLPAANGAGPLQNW

## Cc1ccc(C(=O)N2CCC[C@@H](Nc3ccc(C(F)(F)F)cn3)[C@@H]2C)c(-n2nccn2)n1 [Example 98, (6-methyl-2-(2H-1,2,3-triazol-2-yl)pyridin-3-yl)((2S,3R)-2-methyl-3-((5-(trifluoromethyl)pyridin-2-yl)amino)piperidin-1-yl)methanone]
[1]
  Ki: > 10000 nM
[2]
  Ki: 12 nM
[3]
  Ki: 26 nM

## Cc1ccc(C(=O)N2CCC[C@@H](Nc3ccc(Cl)cn3)[C@@H]2C)c(-n2nccn2)c1 [Example 99, ((2S,3R)-3-((5-chloropyridin-2-yl)amino)-2-methylpiperidin-1-yl)(4-methyl-2-(2H-1,2,3-triazol-2-yl)phenyl)methanone]
[1]
  Ki: 1400 nM
[2]
  Ki: 15 nM
[3]
  Ki: 23 nM

## Cc1cnc(C(=O)N2CCC[C@@H](Oc3ncc(C(F)(F)F)cn3)[C@@H]2C)c(-n2nccn2)c1 [Example 101, ((2S,3R)-2-methyl-3-((5-(trifluoromethyl)pyrimidin-2-yl)oxy)piperidin-1-yl)(5-methyl-3-(2H-1,2,3-triazol-2-yl)pyridin-2-yl)methanone]
[1]
  Ki: > 10000 nM
[2]
  Ki: 446 nM
[3]
  Ki: 215 nM

## Cc1ccc(C(=O)N2CCC[C@@H](Oc3ncc(C(F)(F)F)cn3)[C@@H]2C)c(-n2nccn2)c1 [Example 102, (4-methyl-2-(2H-1,2,3-triazol-2-yl)phenyl)((2S,3R)-2-methyl-3-((5-(trifluoromethyl)pyrimidin-2-yl)oxy)piperidin-1-yl)methanone]
[1]
  Ki: 5200 nM
[2]
  Ki: 25 nM
[3]
  Ki: 28 nM

## C[C@H]1[C@H](Oc2ncc(C(F)(F)F)cn2)CCCN1C(=O)c1ccccc1-n1nccn1 [Example 103, (2-(2H-1,2,3-triazol-2-yl)phenyl)((2S,3R)-2-methyl-3-((5-(trifluoromethyl)pyrimidin-2-yl)oxy)piperidin-1-yl)methanone]
[1]
  Ki: 2300 nM
[2]
  Ki: 97 nM
[3]
  Ki: 44 nM

## Cc1ccc(-n2nccn2)c(C(=O)N2CCC[C@@H](Oc3ncc(C(F)(F)F)cn3)[C@@H]2C)n1 [Example 104, ((2S,3R)-2-methyl-3-((5-(trifluoromethyl)pyrimidin-2-yl)oxy)piperidin-1-yl)(6-methyl-3-(2H-1,2,3-triazol-2-yl)pyridin-2-yl)methanone]
[1]
  Ki: > 10000 nM
[2]
  Ki: 173 nM
[3]
  Ki: 119 nM

## Cc1ccc(C(=O)N2CCC[C@@H](Oc3ccc(C(F)(F)F)cn3)[C@@H]2C)c(-n2nccn2)c1 [Example 112, (4-methyl-2-(2H-1,2,3-triazol-2-yl)phenyl)((2S,3R)-2-methyl-3-((5-(trifluoromethyl)pyridin-2-yl)oxy)piperidin-1-yl)methanone]
[1]
  Ki: 562 nM
[2]
  Ki: 12 nM
[3]
  Ki: 8 nM

— US9115117B2, “Substituted piperidine compounds and their use as orexin receptor modulators” (JANSSEN PHARMACEUTICA NV, priority 2013, dated 2015)
